# Measurements: article PMC4807281 (The Journal of Biological Chemistry, 2016)
# Assays:
# [1] = target: T1, DnaK (Escherichia coli, UniProt P0A6Y8); experiment: Peptide binding assay (fluorescence polarization), control/deglutathionylated DnaK; design: species or system E. coli; conditions: ADP state; FP
# T1 construct: His6-Smt3 (N, cleaved yes); made in house; host or cells: E. coli BL21(DE3)
# Experimental: FP values are expressed in millipolarization units. All statistical analyses were performed with Origin 8 software.
# FIGURE 6.
# [2] = tested on: Hsp72; design: method as in PMID 15540944; conditions: modification at Cys-267; ref [62]; cited from earlier work
# [3] = target: T1, DnaK; design: species or system E. coli; conditions: 0.5 mM ATP or ADP premixed 30 min with DnaK T199A; GSH and diamide
# Experimental: To deglutathionylate the protein, 10 mM DTT was added to the reaction mixture. GSH, diamide, and/or DTT was removed by dialysis.
# (§1) Cooled protein was mixed with the dye and incubated in the dark at room temperature for at least 30 min. SDS-PAGE was performed to separate protein and surplus dye. Fluorescence of Alexa Fluor 350 dye was observed using excitation at 254 nm with a UV lamp.
# (§2) FIGURE 3. […] Unmodified cysteine residues for untreated control, glutathionylated, and deglutathionylated samples were labeled with fluorescent dye.
# [4] = target: T1, DnaK; design: species or system E. coli; conditions: 1 mM ADP/ATP/NRLLLTG peptide, 1 h room temperature before DTNB; mean of three
# Experimental: A standard curve was obtained using 0–100 μM free cysteine. […] The number of active cysteine residues can be calculated by dividing the concentration of free thiols in the protein by the concentration of protein.
# FIGURE 1. […] The N-terminal NBD and its subdomains IA, IB, IIA, and IIB and the C-terminal SBD are indicated. […] The number of free thiols was calculated from the absorbance at 412 nm using a standard curve.
# [5] = tested on: Ssa1; design: method as in PMID 8939938, PMID 9753476, PMID 10462452; conditions: absence of nucleotide; ref [56], [60], [61]; cited from earlier work
# [6] = target: T2, glutathionylated DnaK (Escherichia coli, UniProt P0A6Y8); experiment: Deglutathionylation of glutathionylated DnaK by Grx3/GSH; design: species or system E. coli; conditions: 10 μM glutathionylated DnaK, 30 min, 37 °C, […] Grx3 with 20 μM GSH
# T2 construct: His6-Smt3 (N, cleaved yes); made in house; host or cells: E. coli BL21(DE3)
# Experimental: […] GSH, diamide, and/or DTT was removed by dialysis.
# as §1, §2
# [7] = tested on: heat-induced luciferase aggregation; design: method as in PMID 15109915; conditions: ref [68]; cited from earlier work
# T1 sequence (P0A6Y8 2-638): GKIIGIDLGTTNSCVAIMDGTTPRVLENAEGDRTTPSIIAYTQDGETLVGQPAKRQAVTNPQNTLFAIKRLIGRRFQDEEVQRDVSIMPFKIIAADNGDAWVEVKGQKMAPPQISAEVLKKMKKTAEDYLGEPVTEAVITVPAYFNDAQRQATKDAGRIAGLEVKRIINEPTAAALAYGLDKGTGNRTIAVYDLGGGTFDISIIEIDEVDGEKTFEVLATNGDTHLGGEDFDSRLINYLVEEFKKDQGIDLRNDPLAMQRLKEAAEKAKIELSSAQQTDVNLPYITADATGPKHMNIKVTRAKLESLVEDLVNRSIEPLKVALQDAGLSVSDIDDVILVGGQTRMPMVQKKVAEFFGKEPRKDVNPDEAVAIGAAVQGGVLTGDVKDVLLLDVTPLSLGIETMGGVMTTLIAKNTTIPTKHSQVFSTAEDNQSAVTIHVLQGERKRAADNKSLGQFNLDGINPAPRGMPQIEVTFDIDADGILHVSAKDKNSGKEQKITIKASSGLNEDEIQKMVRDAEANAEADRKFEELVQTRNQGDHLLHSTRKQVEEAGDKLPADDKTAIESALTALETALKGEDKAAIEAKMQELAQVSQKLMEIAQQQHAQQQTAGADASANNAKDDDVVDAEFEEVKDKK
# T2 sequence (P0A6Y8 2-638): as above
compound,measurement,setting,value
CC(C)C[C@H](NC(=O)[C@H](C)NC(=S)Nc1ccc2c(c1)C(=O)OC21c2ccc(O)cc2Oc2cc(O)ccc21)C(=O)N[C@@H](CC(C)C)C(=O)N[C@@H](CC(C)C)C(=O)N[C@@H](CO)C(=O)N[C@@H](C)C(=O)N1CCC[C@H]1C(=O)N[C@@H](CCCNC(=N)N)C(=O)N[C@@H](CCCNC(=N)N)C(=O)O,effect of ADP binding to DnaK on binding affinity of peptide,[1],did not obviously alter the binding affinity of peptide
CCCCCC(O)C=CC=O (stereo not drawn) [4-Hydroxy-2-nonenal],effect on protein refoldase activity of Hsp72,[2],inhibits its protein refoldase activity
Nc1ncnc2c1ncn2[C@@H]1O[C@H](COP(=O)(O)OP(=O)(O)OP(=O)(O)O)[C@@H](O)[C@H]1O [ATP],effect on glutathionylation of DnaK,[3],no glutathionylation of DnaK occurred
same,effect on cysteine reactivity of DnaK,[4],inhibited cysteine reactivity of DnaK to different degrees
Nc1ncnc2c1ncn2[C@@H]1O[C@H](COP(=O)(O)OP(=O)(O)O)[C@@H](O)[C@H]1O [ADP],effect on glutathionylation of DnaK,[3],no glutathionylation of DnaK occurred
same,effect on cysteine reactivity of DnaK,[4],inhibited cysteine reactivity of DnaK to different degrees
CCN1C(=O)C=CC1=O [N-ethylmaleimide],effect of modification on Ssa1,[5],reduces transmembrane transport as well as the ATPase and luciferase refolding activities of Ssa1
N[C@@H](CCC(=O)N[C@@H](CS)C(=O)NCC(=O)O)C(=O)O [GSH],deglutathionylation of DnaK,[6],worked synergistically to cause deglutathionylation of DnaK
Hsc70: Hsp70 family member whose glutathionylation is cited,effect of glutathionylation of Hsc70,[7],enhance inhibition of heat-induced luciferase aggregation
